COC(=O)Nc1nc2ccccc2[nH]1
solubility (mole fraction)
Conditions	278.15 K	283.15 K	288.15 K	293.15 K	298.15 K	303.15 K	308.15 K	313.15 K	318.15 K	323.15 K
in ethanol	6.39e-06	1.05e-05	1.58e-05	2.3e-05	3.19e-05	4.34e-05	5.78e-05	7.66e-05	0.000101	0.000134
in methanol	3.19e-05	4e-05	5.2e-05	6.33e-05	7.77e-05	9.85e-05	0.000118	0.000143	0.000173	0.000201
in n-butanol	2.12e-06	3.75e-06	6.22e-06	9.84e-06	1.5e-05	2.28e-05	3.34e-05	5.07e-05	7.61e-05	0.000111
in n-pentanol	1e-06	2e-06	3.62e-06	6.19e-06	1.05e-05	1.69e-05	2.87e-05	4.55e-05	6.8e-05	0.000101
in n-propanol	3.3e-06	5.42e-06	8.66e-06	1.3e-05	1.89e-05	2.73e-05	3.92e-05	5.57e-05	8.38e-05	0.00012

From BigSolDB 2.1
